Legend:
endothelial cells = settings: in vitro; cited from earlier work
EP2 receptor = EP2 receptor (Mus musculus, UniProt Q62053); settings: read-out: affinity for the EP2 receptor; cited from earlier work
VEGF = settings: systemic treatment of patients; cited from earlier work
[1] = three months intracavernous injections three times a week; cited from earlier work
[2] = test system: segments of rat iliac arteries; experiment: microvascular outgrowth from rat iliac artery ringlets cultured in Matrigel; format: cell-based, Sprague-Dawley rats
Description: Each sample was placed on a reduced-growth factor Matrigel coated coverglass slide in a culture dish filled with serum-free medium. […] The cultures were incubated at 37° C. in a humidified atmosphere with 5% CO2. Digital photographs were taken of growth after 96 hours.
Growth Factor Reduced Matrigel (Passaniti, A., et al., Lab. Invest. 1992 67:518-528) was purchased from Becton Dickinson (Mountain View, Calif.). Cell culture grade PGE1 was purchased from Sigma Chemical. (St. Louis, Mo.). RPIM-1640 and other cell culture reagents were purchased from GIBCO Invitrogen Corp. (Grand Island, N.Y.).
Male Sprague-Dawley rats, two-months old, were used in this study. All animal care, treatments, and procedures were approved by the institutional Committee on Animal Research. The rats were sacrificed by intraperitoneal injection of sodium pentobarbital (50 mg/kg) followed by bilateral thoracotomy and the removal of segments of iliac arteries.
The iliac artery segments isolated from Sprague-Dawley rats were sectioned into ringlets and cultured attached to Matrigel-coated glass coverslips. The coverslips were used as the supporting platform to facilitate samples processing for histological staining and examination. Coverslips were coated as follows. Growth Factor Reduced Matrigel (Becton Dickinson, Mountain View, Calif.) was diluted 3-fold in serum-free RPMI-1640 in a 35-mm culture dish on ice. The diluted Matrigel was then spread onto cold sterilized glass coverslips using a sterilized glass slide as spreader. The coated coverslips were placed in 35-mm culture dishes and incubated at 37° C. for 1 hr to allow the Matrigel to solidify. Iliac artery ringlets were placed on top of Matrigel coated coverslips and covered by 50 μl cold Growth Factor Reduced Matrigel which had been kept in liquid form. After a 5-min incubation at 37° C. to allow the Matrigel to polymerize, 3 ml of serum-free RPMI 1640 medium supplemented with 1×penicillin-streptomycin-fangizone (Cell Culture Facility, University of California, San Francisco) was added. […] The iliac artery ringlet cultures were maintained at 37 ° C. in a humidified atmosphere with 5% CO2.
After 96 hours of incubation, the iliac artery ringlet cultures were examined. Microvascular growths were photographed using a professional DCS-420 digital camera (Eastman Kodak, Rochester, N.Y.) connected to an Olympus microscope and an Apple Macintosh PowerMac computer. All samples were photographed and the images were stored for later analysis. The digital images were analyzed using ChemiImager 4000 software (Alpha Innotech Corporation, San Leandro, Calif.) to determine the maximum length of the microvascular growths.
Statistical analysis was performed using computer software from Primer of Biostatistics, 3rd ed. (Glantz SA, McGraw-Hill, Inc. New York, 1992). The data involving different time points were first analyzed by one-way analysis of variance (ANOVA). If ANOVA indicated a significant difference, the Student-Neuman-Keuls test was used to perform pair-wise comparisons.

[3] = three months intracavernous injections three times a week; patients completing treatment; cited from earlier work

EP2 receptor, sequence (Q62053 whole entry): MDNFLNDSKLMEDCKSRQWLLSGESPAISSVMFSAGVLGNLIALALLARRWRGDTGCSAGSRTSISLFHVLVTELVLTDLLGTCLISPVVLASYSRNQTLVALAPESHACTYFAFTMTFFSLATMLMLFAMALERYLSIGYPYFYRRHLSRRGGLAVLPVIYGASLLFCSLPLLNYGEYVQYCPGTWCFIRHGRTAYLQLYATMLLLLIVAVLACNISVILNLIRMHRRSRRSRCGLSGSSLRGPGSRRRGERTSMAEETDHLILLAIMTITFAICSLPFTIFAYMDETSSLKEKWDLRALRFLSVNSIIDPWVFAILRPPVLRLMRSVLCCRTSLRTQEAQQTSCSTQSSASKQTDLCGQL

Row | Compound | effect on VEGF (endothelial cells) | Kd (EP2 receptor) [nM] | effect on VEGF expression (VEGF) | recovery of spontaneous erections [1] | responsiveness to oral sildenafil therapy [1] | peak microvascular growth ([2]; 1 μM PGE1) [micrometers] | Length of longest microvascular growth ([2]; 1 μM PGE1, 96 hours) [μm] | Length of longest microvascular growth ([2]; 10 μM PGE1, 96 hours) [μm] | Length of longest microvascular growth ([2]; 20 μM PGE1, 96 hours) [μm] | Length of longest microvascular growth ([2]; 30 μM PGE1, 96 hours) [μm] | Length of longest microvascular growth ([2]; 60 μM PGE1, 96 hours) [μm] | effect on microvascular outgrowth ([2]; primary cultures of rat iliac artery segments) | patients reporting recovery of spontaneous erections sufficient for intercourse [3]
1 | CCCCC[C@H](O)/C=C/[C@H]1[C@H](O)CC(=O)[C@@H]1C/C=C\CCCC(=O)O [PGE2, prostaglandin E2] | up-regulate VEGF | ~10 |  |  |  |  |  |  |  |  |  |  | 
2 | Prostaglandin E1 [PGE1] |  |  | up-regulate expression of VEGF | more likely to recover spontaneous erections | more likely to be responsive to oral sildenafil therapy | 680 | 680 | 360 | 100 | 30 | 5 | enhance microvascular outgrowth | 8 of the 12

Reference: patent publication US20040241243A1, “Angiogenesis promotion by prostaglandin compositions and methods” (NexMed (Holdings) Inc., priority 2003, published 2004)
